Consider 8 compounds from patent US20230190717A1, “P38 GAMMA INHIBITORS AND METHOD OF USE THEREOF” (City of Hope, priority 2017, published 2023).

Structures are written as SMILES. Entries after “also recorded” stand apart in the source; their conditions may differ.

For test [1], the system named is p38γ. The experiment in a line: Time-resolved fluorescence energy transfer enzyme kinetic analysis. The test is classed as biochemical.
Test [2] concerns Hut78 cells. As to the kind of experiment: CellTiterGlo cell viability, Hut78. The test is classed as cell-based, human. Particulars: for effect on viability of Hut78 cells: varying concentrations, 72 hr; for IC50: Homo sapiens, HuT78, 72 h. On the technique in general: Cellular ATP, detected with luciferase, serves as a proxy for viable cell number.
Description: (§2) Viability assays using trypan blue exclusion and CellTiterGlo Cell Viability Assay: Cell viability was calculated by diluting cell suspensions 1:1 in 0.4% TRYPAN BLUE solution (Sigma, St. Louis, Mo.) and counting the number of viable cells using a TC20™ automated cell counter (Bio-Rad, Irvine, Calif.) that automatically excludes the number of non-viable cells stained with trypan blue per total cells. […] All data points are an average of triplicate experiments.
(§3) Absorbance was monitored at 490 nm using an automated BMG PHERAstar plate reader (BMG Labtech). […] All experiments are repeated in three independent experiments and data represented are the average of triplicate experiments.
The next test addresses T1, p38 γ (Homo sapiens, UniProt P53778).
T1 sequence (P53778 1-367): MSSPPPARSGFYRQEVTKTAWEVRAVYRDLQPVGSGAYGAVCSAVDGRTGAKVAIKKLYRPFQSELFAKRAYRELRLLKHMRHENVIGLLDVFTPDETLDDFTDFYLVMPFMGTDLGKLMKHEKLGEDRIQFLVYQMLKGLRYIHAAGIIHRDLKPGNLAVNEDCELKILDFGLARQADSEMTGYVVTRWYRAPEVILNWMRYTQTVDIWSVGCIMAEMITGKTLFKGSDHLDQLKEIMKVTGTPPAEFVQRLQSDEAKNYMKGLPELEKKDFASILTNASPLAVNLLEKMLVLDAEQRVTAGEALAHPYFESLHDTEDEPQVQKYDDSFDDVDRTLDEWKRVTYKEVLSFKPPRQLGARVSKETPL
As to the kind of experiment: ADP-Glo in vitro kinase assay, p38γ. The format is biochemical. Further details: human recombinant p38 α, β, γ or δ protein (active full-length); purchased SignalChem; host or cells: baculovirus in Sf9 insect cells. As to conditions: for inhibitory kinase activity against p38γ: PI3K inhibitors at 1 and 10 μM; for IC50: in vitro inhibition assay.

Test [3] deals with phosphorylation of Akt at ser473. The experiment in a line: Western blot of Akt Ser473 phosphorylation in Hut78. The format is cell-based, human. Particulars: Hut78, 4 hr treatment. In general terms: Immunoblotting shows a protein as a band on a membrane.
Description: Western blot: Western blots were performed as described previously [5]. Rabbit primary antibodies (Cell Signaling Technology (CST), Danvers, Mass.) were used at the following dilutions: anti-p38α, -p38β, -p38γ, and -p38δ (1:1000), anti-B-tubulin (1:2000), anti-p38 GAPDH 1:1000. […] For detection of p38γ protein level in SS patient samples we used a monoclonal antibody that close to N-terminus of human p38γ MAPK (SAPK3) from Abcam ((ab205926).
Another test concerns HH cells. The experiment in a line: CellTiterGlo cell viability, HH. The test is classed as cell-based. As to conditions: Homo sapiens, 72 h.
In test [4] the test system is PBMCs isolated from an SS patient. As to the kind of experiment: Annexin V/PI flow cytometry, SS patient PBMCs. As to conditions: SS PBMC, 200 nM, 24 h. The format is cell-based, human. The source says: (§1) Data presented are one experiment in triplicate.
Another test deals with Hut78 CTCL cell line. As to the kind of experiment: Annexin V/PI flow cytometry, Hut78. The format is cell-based, human. Particulars: Hut78, 200 nM, 24 h.
From the text: as §1

For test [5], the system named is p38γ. The experiment in a line: p38γ mRNA level and protein expression (Western blot). The format is cell-based. Particulars: Western blot, 24 hr, 500 nM. An excerpt: qRT-PCR (real-time quantitative reverse transcription PCR): Total RNA was generated using TRIZOL reagent (Life Technologies, Carlsbad, Calif.) followed by double DNase treatment and column purification using Qiagen RNeasy Clean-up (Qiagen, Germantown, Md.). The Invitrogen […] III First-Strand Synthesis System was used for cDNA synthesis and TaqMan 5700 Sequence Detection System (Applied Biosystems, Foster City, Calif.) were used for qRT-PCR. All PCR reactions were run in triplicate. The amplified transcripts were quantified using the comparative CT method as described. cDNA and primers for MAPK11, 12, 13, and 14 and GAPDH (Table 9) were added to SYBR GREEN PCR Master Mix (SYBR Green I Dye, […]® DNA polymerase, dNTPs with dUTP and optimal buffer components; Applied Biosystems) and subjected to PCR amplification (1 cycle at 95° C. for 3 min; 35 cycles at 95° C. for 15 s and 55° C. for 30 s; 1 cycle at 50° C. for 2 min).

Test [6] deals with Hut78 cells. The experiment in a line: Hut78 cell proliferation / viability. The format is cell-based, human.
Test [7] concerns p38γ. As to the kind of experiment: p38 isoform kinase activity (FIG. 20A). The test is classed as biochemical.
Another test has as its system SS patient cells. The experiment in a line: Apoptosis and growth in primary SS patient cells. The format is cell-based, human.
The subject of the next test is healthy CD4+ T cells. As to the kind of experiment: Apoptosis and growth in healthy CD4+ T cells. The format is cell-based, human. Particulars: FIG. 19E.
Test [8] deals with CTCL cells. The experiment in a line: CTCL cell growth / killing. The test is classed as cell-based.
A further test relates to Hut78 xenografts. The experiment in a line: Hut78 xenograft tumor growth in mice. The test is classed as in vivo.
For test [9], the system named is p38γ substrate DLGH1 at Ser158. The experiment in a line: Western blot of Hut78 cells for phosphorylation of p38γ substrate. The test is classed as cell-based, human.
In test [10] the test system is p38γ substrate DLGH1 at Ser158. As to the kind of experiment: Immunohistochemistry in F7-treated CTCL xenograft mouse tissue. Particulars: data not shown. The format is in vivo.
For the next test, the target named is PI3Kγ (Homo sapiens, UniProt P48736). Particulars: PI3Kγ isoform; cited from earlier work.
PI3Kγ, sequence (P48736 whole entry, canonical isoform): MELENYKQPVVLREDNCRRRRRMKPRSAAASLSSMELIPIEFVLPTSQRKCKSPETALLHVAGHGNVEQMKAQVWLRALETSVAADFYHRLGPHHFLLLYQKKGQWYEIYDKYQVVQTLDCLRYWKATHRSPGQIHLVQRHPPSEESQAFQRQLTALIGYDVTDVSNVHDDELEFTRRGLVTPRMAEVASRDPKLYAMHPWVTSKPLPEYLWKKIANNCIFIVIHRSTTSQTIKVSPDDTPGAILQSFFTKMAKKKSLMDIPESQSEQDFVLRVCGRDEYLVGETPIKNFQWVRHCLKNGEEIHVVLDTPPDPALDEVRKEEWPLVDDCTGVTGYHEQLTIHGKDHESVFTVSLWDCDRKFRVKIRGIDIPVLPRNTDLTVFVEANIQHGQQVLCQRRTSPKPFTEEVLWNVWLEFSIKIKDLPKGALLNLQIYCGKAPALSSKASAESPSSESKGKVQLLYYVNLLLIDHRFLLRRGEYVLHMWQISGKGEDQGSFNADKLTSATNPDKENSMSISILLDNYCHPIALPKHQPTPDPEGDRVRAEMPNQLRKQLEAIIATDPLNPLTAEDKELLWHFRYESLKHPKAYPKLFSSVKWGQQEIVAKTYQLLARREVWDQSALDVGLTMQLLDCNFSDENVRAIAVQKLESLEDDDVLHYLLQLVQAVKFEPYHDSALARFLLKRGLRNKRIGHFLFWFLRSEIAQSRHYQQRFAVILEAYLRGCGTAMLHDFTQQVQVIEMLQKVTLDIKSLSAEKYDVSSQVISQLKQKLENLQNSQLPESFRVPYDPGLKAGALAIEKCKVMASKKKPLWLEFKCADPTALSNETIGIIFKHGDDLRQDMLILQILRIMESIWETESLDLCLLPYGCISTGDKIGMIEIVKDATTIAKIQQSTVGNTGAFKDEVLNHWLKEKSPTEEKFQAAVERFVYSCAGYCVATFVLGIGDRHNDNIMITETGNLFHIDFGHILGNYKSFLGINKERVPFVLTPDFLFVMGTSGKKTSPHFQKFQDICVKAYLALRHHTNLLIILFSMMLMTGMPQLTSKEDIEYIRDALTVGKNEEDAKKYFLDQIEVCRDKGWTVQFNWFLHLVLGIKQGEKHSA
A further test concerns H9 cells. The experiment in a line: CellTiterGlo cell viability, H9. Particulars: Homo sapiens, H9, 72 h.
Another test concerns the target T2, p38δ (Homo sapiens, UniProt O15264).
T2 sequence (O15264 1-365): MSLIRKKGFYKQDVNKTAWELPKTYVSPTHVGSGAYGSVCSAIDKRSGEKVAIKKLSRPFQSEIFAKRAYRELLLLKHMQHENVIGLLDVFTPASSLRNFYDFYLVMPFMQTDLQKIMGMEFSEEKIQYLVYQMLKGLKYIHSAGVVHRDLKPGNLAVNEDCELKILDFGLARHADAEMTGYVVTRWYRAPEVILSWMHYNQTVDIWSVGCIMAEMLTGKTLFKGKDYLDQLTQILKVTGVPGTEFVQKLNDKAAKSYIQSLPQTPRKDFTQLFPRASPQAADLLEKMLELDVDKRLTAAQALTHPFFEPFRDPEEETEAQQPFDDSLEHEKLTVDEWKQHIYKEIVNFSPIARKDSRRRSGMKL
As to the kind of experiment: p38 isoform kinase activity (FIG. 20A). The format is biochemical. Further details: human recombinant p38 α, β, γ or δ protein (active full-length); purchased SignalChem; host or cells: baculovirus in Sf9 insect cells. Particulars: p38δ (printed "6").

Test [11] relates to p38γ. As to the kind of experiment: p38γ inhibition at the concentration used in the RNAi library screen. As to conditions: 10 uM, data not shown. An excerpt:
Synthetic lethal RNAi screen. We will use a synthetic lethal RNAi screen in the presence of sub-lethal p38γ inhibition to identify critical downstream signaling components in CTCL (FIG. 31). We will transduce control and p38γ inhibitor-treated Hut78 CTCL cells with a pooled retroviral RNAi library that targets genes involved in human cancers. Because loss of p38γ alone causes CTCL cell death, we will titrate the dose and/or length of exposure to the p38γ inhibitor to ensure a sub-lethal effect. The target gene of an shRNA that causes death in cells treated with sub-lethal p38γ inhibitor but not control cells will be identified as synthetic lethal/synergistic. Based on our preliminary data showing synergy between F7 and HDACi, we are expecting to identify HDAC family members in the RNAi screen. We will further narrow down the corresponding HDACi for each HDAC member identified, and study potential synergistic effects to achieve of killing CTCL cells. For example, our preliminary data has shown using an RNAi library plus the p38 inhibitor Ly2228820, we have successfully selected loss of HDAC3 as a synergistically lethal element to p38 pathway inhibition, including α, β, and γ isoforms of p38 by LY2228820 (10 uM) […] We will further test the combination of p38γ inhibition with several HDAC3 inhibitors (e.g., RGFP966) for further mechanistic study in Hut78 cells.

Test [12] relates to CTCL cells. The experiment in a line: Cell viability, CTCL cells (pirfenidone). Particulars: Homo sapiens, read-out: IC50 CTCL cell growth / cell killing. The format is cell-based.
Test [13] has as its target T3, p38γ (Mus musculus, UniProt O08911).
T3 construct: host or cells: mice (in vivo)
Particulars: requires a high dose; cited from earlier work.

T3 sequence (O08911 whole entry): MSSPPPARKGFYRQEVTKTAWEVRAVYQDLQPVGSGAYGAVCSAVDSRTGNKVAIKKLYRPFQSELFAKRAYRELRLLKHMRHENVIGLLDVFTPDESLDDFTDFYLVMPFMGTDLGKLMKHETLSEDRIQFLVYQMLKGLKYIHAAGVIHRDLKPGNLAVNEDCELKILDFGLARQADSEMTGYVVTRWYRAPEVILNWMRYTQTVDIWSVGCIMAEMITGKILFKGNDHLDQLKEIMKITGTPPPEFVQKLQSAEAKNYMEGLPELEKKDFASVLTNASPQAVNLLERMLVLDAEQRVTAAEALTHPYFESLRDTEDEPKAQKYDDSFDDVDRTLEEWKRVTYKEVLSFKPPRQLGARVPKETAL
Description for H9 cells: as §2, §3
Description for HH cells: as §2, §3
Description for p38 γ: All compounds are cell-permeable, reversible and well-characterized. For the biochemical screening, kinase assays in vitro were performed using ADP-Glo kit (Promega). The luminescent ADP-Glo kinase assay measures ADP produced from ATP consumption in the reaction.
Kinase assay in vitro: Kinase enzyme assays in vitro were performed using ADP-Glo kit (Promega, Wis.). The luminescent ADP-Glo kinase assay measures ADP produced from ATP consumption in a kinase enzyme reaction. […] Briefly, in this experiment, human recombinant p38 α, β, γ or δ protein (active full-length) expressed by baculovirus in sf9 insect cells (SignalChem, Vancouver, Canada) was homogenized in wells of white opaque 96-well microplates with the kinase buffer that consisted of 40 mM Tris-HCl (pH 7.5), 20 mM MgCl2, 0.1 mg/mL BSA and 50 μM DTT. […] Next, synthetic peptide substrates ([sequence]) were added to the mixture at final concentration of 0.2 μg/μL, followed by adding ATP at various concentrations. The 50 μL mixture was reacted at room temperature for 60 min. Then, ADP-Glo Reagent was incubated in the mixture at room temperature for 40 min, followed by incubation of Kinase Detection Reagent for another 30 min with minor modification as described in the supplier's instruction. Luminescence was measured at an integration time of 0.5 second using an automated BMG PHERAstar plate reader (BMG Labtech). Each experiment was conducted in duplicate or triplicate. […] IC50 values were determined using CalcuSyn software (Biosoft).
IC50 values were determined using CalcuSyn software (Biosoft) based on the data of Figure a.
IC50 values were determined using CalcuSyn software (Biosoft).
All compounds are cell-permeable, reversible, and well-characterized. For the biochemical screening, kinase assays in vitro were performed using ADP-GLO kit (Promega) following manufactures instructions. […] Briefly, for in vitro assay experiments, human recombinant p38 α, β, γ or δ proteins (active full-length) were from [sequence], and followed the protocol of the company. […] Then, ADP-GLO REAGENT was incubated in the mixture at room temperature for 40 min, followed by incubation of Kinase Detection Reagent for another 30 min. IC50 values were determined using [sequence] software (Biosoft, Cambridge, United Kingdom).

As to `Nc1ncnc2c1ncn2[C@@H]1O[C@H](COP(=O)(O)OP(=O)(O)OP(=O)(O)O)[C@@H](O)[C@H]1O` [ATP], the Michaelis-Menten constant (Km) (commonly the concentration of substrate that gives half-maximal velocity) in the test with p38γ [1] (p38γ, read-out: ATP Km) was 3.2 ± 0.4 µM.
Take `Cn1c(=O)n(-c2ccc(C(C)(C)C#N)cc2)c2c3cc(-c4cnc5ccccc5c4)ccc3ncc21` [BEZ235, Dactolisib]: the “effect on viability of Hut78 cells” value with Hut78 cells [2] is recorded as “only modest reduction of cell viability”. Moreover, the “inhibitory kinase activity against p38γ” value at p38 γ is “no inhibitory kinase activities”.
Turning to `Cc1nc(NC(=O)N2CCC[C@H]2C(N)=O)sc1-c1csc(C(C)(C)C)n1` [Compound A66], the “effect on viability of Hut78 cells” value in the test on Hut78 cells [2] is “no influence”. For the same compound, the “phosphorylation of Akt at ser473” value in test [3] is listed as “dose-dependent inhibition”. Also, on p38 γ, the “inhibitory kinase activity against p38γ” value was “no inhibitory kinase activities; also recorded: doesn't inhibit”.
As to `Cc1ccc([N+](=O)[O-])cc1S(=O)(=O)N(C)/N=C/c1cnc2ccc(-c3ccc(F)nc3)cn12` [Compound F7D10], the results for the IC50 in the test on Hut78 cells [2] and at p38 γ were around 2.5 µM and around 3.4 µM, respectively.
For `Cc1ccc([N+](=O)[O-])cc1S(=O)(=O)N(C)/N=C/c1cnc2ccc(Br)cn12` [Compound F7], the IC50 in the test on Hut78 cells [2] is 0.042 µM; with HH cells it was 0.034 µM; on PI3Kγ it was 0.076 µM; in the test with H9 cells, 0.046 µM. For the same compound, the AnnexV_PI in test [4] is reported as 17.8 Percentage; with Hut78 CTCL cell line, 25.5 Percentage. Further, the Live cells in test [4] was found to be 42.797 Percentage; in the test with Hut78 CTCL cell line, 44.48 Percentage. For the same compound, the “PI Stained” value was found to be 35.2 Percentage in test [4] and 29.53 Percentage in the test with Hut78 CTCL cell line. Also, in the test on p38γ [5], the “protein expression of p38 gamma” value was “reduces and eliminates the protein expression”. In addition, the “cell viability in Hut78 cells” value in the test with Hut78 cells [6] (FIG. 19B / FIG. 29A) is “reduced cell viability”. For the same compound, the inhibition of growth result in the test on Hut78 cells [6] (Hut78 CTCL cells, FIG. 19E) is on record as “inhibition of growth”; in the test with SS patient cells (FIG. 19E), “inhibition of growth”; in the test with healthy CD4+ T cells, “but not healthy CD4+ T cells”. Also, the induction of apoptosis entry in the test with Hut78 cells [6] (Hut78 CTCL cells, data not shown) is reported as “selective induction of apoptosis”; with SS patient cells (data not shown), “selective induction of apoptosis”. Further, in the test with Hut78 cells [6] (compared with Pirfenidone, FIG. 7), the “proliferation of Hut78 cells” value was “reduced proliferation of Hut78 cells more effectively than Pirfenidone”. Also, the “inhibition of kinase activity” value is recorded as “selective, dose-dependent inhibition” in the test on p38γ [7] and “selective, dose-dependent inhibition” on p38δ. Moreover, in the test with CTCL cells [8], the “killing of CTCL cells” value was “selectively kills CTCL cells at nanomolar concentrations”. In the test with CTCL cells [8] (compared with PI3K-specific inhibitor A66, FIG. 28), the “effectiveness against CTCL cells” value is “more effective against CTCL cells than a PI3K-specific inhibitor”. In addition, the “inhibition of CTCL cell growth” value with CTCL cells [8] (compared with Vorinostat (SAHA)) is listed as “more potent inhibitor of CTCL cell growth than the FDA-approved HDACi Vorinostat”. Also, the “inhibition of tumor growth” value with Hut78 xenografts (2 mg/kg, p=0.015, versus vehicle control) is listed as “statistically significant dose-dependent inhibition of tumor growth”; in the test on Hut78 xenografts (10 mg/kg, p=0.025, versus vehicle control), “statistically significant dose-dependent inhibition of tumor growth”. In addition, the “phosphorylation of p38γ substrate DLGH1 at Ser158” value in [9] and in test [10] was “reduced phosphorylation” throughout. Further, the mechanism of inhibition entry with p38γ [1] (versus ATP) is listed as “competitive mechanism”.
`CS(=O)(=O)N1CCN(Cc2cc3nc(-c4cccc5[nH]ncc45)nc(N4CCOCC4)c3s2)CC1` [GDC-0941, Pictilisib]: the “effect on viability of Hut78 cells” value in the test on Hut78 cells [2] is given as “only modest reduction of cell viability”. In addition, the “inhibitory kinase activity against p38γ” value at p38 γ is “no inhibitory kinase activities”.
Take `CC(C)(C)Cn1c(N)nc2ccc(-c3[nH]c(C(C)(C)C)nc3-c3ccc(F)cc3)nc21` [LY2228820]: in the test on p38γ [11], the p38γ inhibition result is on record as “caused p38γ inhibition”.
`Cc1ccc(=O)n(-c2ccccc2)c1` [Pirfenidone]: the IC50 in the test on Hut78 cells [2], in the test on HH cells, in the test with CTCL cells [12], with H9 cells and on p38 γ was above 125 µM in each case. In addition, the “p38γ inhibition in mice” value on p38γ [13] is “inhibits p38γ in mice”.
